Measured values published in ChEMBL document CHEMBL1138805, “NO-sartans: a new class of pharmacodynamic hybrids as cardiovascular drugs” (J Med Chem, 2004).

Assays:
Type in all cases: functional
[1] = target: T1, Type-1 angiotensin II receptor (Homo sapiens) (UniProt P30556); assay: Antagonistic activity against Angiotensin II receptor type 1
T1 sequence (whole entry): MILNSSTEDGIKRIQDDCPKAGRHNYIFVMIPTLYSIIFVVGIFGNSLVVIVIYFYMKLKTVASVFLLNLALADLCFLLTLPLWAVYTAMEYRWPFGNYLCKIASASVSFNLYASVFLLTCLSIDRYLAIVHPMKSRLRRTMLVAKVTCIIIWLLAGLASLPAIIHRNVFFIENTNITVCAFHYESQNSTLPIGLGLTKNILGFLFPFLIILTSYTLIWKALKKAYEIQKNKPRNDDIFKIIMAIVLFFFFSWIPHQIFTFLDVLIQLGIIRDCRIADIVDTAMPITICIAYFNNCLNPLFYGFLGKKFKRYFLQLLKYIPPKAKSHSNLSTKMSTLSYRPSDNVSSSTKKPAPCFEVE

[2] = Vasorelaxing activity was determined
[3] = Nitric oxide releasing effect was determined
[4] = target: T1, Type-1 angiotensin II receptor (Homo sapiens); assay: Antagonistic activity against Angiotensin II receptor type 1 in presence of eserin
[5] = Vasorelaxing activity in the presence of eserin was determined

| Kb [1] [nM] | Kb [4] [nM] | SMILES | Efficacy [2] [%] | Efficacy [3] | Efficacy [5] |
| --- | --- | --- | --- | --- | --- |
| 16 | – | CCCCc1nc(Cl)c(COC(=O)CCCCO[N+](=O)[O-])n1Cc1ccc(-c2ccccc2-c2nn[nH]n2)cc1 | 95 | 23 | – |
| 6 | 40 | CCCCc1nc(Cl)c(COC(=O)c2cccc(CO[N+](=O)[O-])c2)n1Cc1ccc(-c2ccccc2-c2nn[nH]n2)cc1 | 92 | 34 | 91 |
| – | – | O=C(O)c1cccc(CO[N+](=O)[O-])c1 | 67 | – | 71 |
